Patent US5143906A, “Kedarcidin antitumor chromophore and pharmaceutical composition containing same” (Bristol-Myers Squibb Company, priority 1991, dated 1992)
Values after ≈ are worked out from the molar mass of the structure shown. “Also recorded” adds a separate entry of the source.

Key:
[1] = system: human colon adenocarcinoma HCT116 drug sensitive line; assay: In vitro cytotoxicity assay (XTT), HCT116; type: cell-based
Protocol: (§1) The A2780/DDP cell line is reported to be resistant through enhanced DNA repair mechanisms and elevated GSH/GST levels. Cells were cultured in McCoy's media and 10% fetal bovine serum. When in log phase growth, 4×10^3 cells/well were plated into 96 well microtiter plates and incubated at 37° C. in […] /5% CO2 for 24 hours to allow cell attachment. Compounds were added to the top row of wells, serially diluted (4 fold dilutions) and incubated for an additional 72 hours. The number of viable cells in each well was then quantitated as previously described^2 by adding 0.05 mg/ml final concentration tetrazolium stain (XTT) in the presence of 0.005 mM final concentration phenazine methosulfate. After incubation at room temperature for 3 hours to allow color development, optical density values were measured using a Dynatech MR600 plate reader at […]. IC50 values (drug concentration inhibiting cell growth by 50%) were calculated using linear regression analysis of the optical density readings. Triplicate determinations on separate 96 well plates were done for each drug on each cell line tested.

[2] = system: HCT116/VP35 drug resistant cell line; assay: In vitro cytotoxicity assay (XTT), HCT116/VP35; type: cell-based, human
Protocol: as §1

[3] = system: HCT116/VM46 drug resistant cell line; assay: In vitro cytotoxicity assay (XTT), HCT116/VM46; type: cell-based, human
Protocol: as §1

[4] = system: human ovarian carcinoma A2780 drug sensitive cell line; assay: In vitro cytotoxicity assay (XTT), A2780; type: cell-based
Protocol: as §1

[5] = system: ip implanted P388 leukemia; assay: Antitumor activity against ip implanted P388 leukemia; type: in vivo, murine (CDF1 mice)
From the text: (§2) The P388 tumor was maintained in ascitic form in DBA/2 mice. Experimental tumor models used CDF^1 mice implanted via the intraperitoneal or intravenous route with 1×10^6 leukemia cells on day 0 and dosed with drugs according to the indicated route and schedule. Mice were weighed on day 0 and on day 5 or 6. Weight loss of 20% or greater was an indicator of drug toxicity. Each dose group consisted of 6 mice with 10 mice in the untreated control group. The dosing schedule was Q1DX1;1. Death checks were performed daily and the median life span of each group determined. […] Experiments were terminated on or about day 30.

[6] = system: sc implanted B16 melanoma; assay: Antitumor activity against sc implanted B16 melanoma; type: in vivo, murine (BDF1 mice); conditions: for % T/C / Av. wgt. change / Med. surv. time / No. of mice alive on d 5: iv
Protocol: The B-16 murine melanoma was maintained as a subcutaneous growing tumor in C57BL/6 mice. Experimental tumor models used BDF^1 mice implanted with a 25 mg tumor fragment implanted subcutaneously via trochar on day 0. Kedarcidin chromophore was administered iv on a Q1DX1;1 schedule. Mice were weighed on day 0 and on day 9.

P388 murine leukemia = P388 murine leukemia models, ip and iv implanted (summary); type: in vivo, murine (CDF1 mice)
From the text: as §2

Stability in solution = type: physicochemical

With COc1c(OC(C)C)cc2cc(O)c(C(=O)N[C@@H]3CC(=O)OC[C@@H](O[C@H]4C[C@H](O)[C@H](N(C)C)[C@H](C)O4)/C4=C/C#C[C@@H]5O[C@]56C(=C[C@H](Oc5ccc3nc5Cl)[C@@H]6O[C@H]3C[C@@](C)(O)[C@@H](O)[C@H](C)O3)C#C4)cc2c1OC [Kedarcidin chromophore] the IC50 ([1]; HCT116, 72 h, VP-16 values: mean of triplicate determinations from last 6 experiments) was 0.4 ng/mL (≈ 0.388 nM), the “fold more potent than VP-16” value ([1]; VP-16 sensitive cell line (HCT116)) was 1725 fold and the “cross-resistance with VP-16” value ([2]; HCT116/VP35) was “not cross-resistant”. The IC50 ([2]; HCT116/VP35, 72 h, VP-16 values: mean of triplicate determinations from last 6 experiments) was 0.3 ng/mL (≈ 0.291 nM), the “cross-resistance with VP-16” value ([3]; HCT116/VM46) was “not cross-resistant” and the IC50 ([3]; HCT116/VM46, 72 h, VP-16 values: mean of triplicate determinations from last 6 experiments) was 0.3 ng/mL (≈ 0.291 nM). The IC50 ([4]; A2780, 72 h, VP-16 values: mean of triplicate determinations from last 6 experiments) was 0.2 ng/mL (≈ 0.194 nM), the “fold more potent than VP-16” value ([4]; VP-16 sensitive cell line (A2780)) was 285 fold and the “% T/C” value ([5]; Exp. 8305, 0.125 mg/kg/dose) was 145%. The Av. wgt. change ([5]; Exp. 8305, 0.125 mg/kg/dose) was 0.1 g, the Med. surv. time ([5]; Exp. 8305, 0.125 mg/kg/dose) was 14.5 and the “No. of mice alive on d 5” value ([5]; Exp. 8305, 0.125 mg/kg/dose) was 6/6. For the same compound, the “% T/C” value ([5]; Exp. 8305, 0.25 mg/kg/dose) was 150%, the Av. wgt. change ([5]; Exp. 8305, 0.25 mg/kg/dose) was -0.4 g and the Med. surv. time ([5]; Exp. 8305, 0.25 mg/kg/dose) was 15.0. The “No. of mice alive on d 5” value ([5]; Exp. 8305, 0.25 mg/kg/dose) was 6/6, the “% T/C” value ([5]; Exp. 8305, 0.5 mg/kg/dose) was 165% and the Av. wgt. change ([5]; Exp. 8305, 0.5 mg/kg/dose) was -0.5 g. The Med. surv. time ([5]; Exp. 8305, 0.5 mg/kg/dose) was 16.5, the “No. of mice alive on d 5” value ([5]; Exp. 8305, 0.5 mg/kg/dose) was 6/6 and the “% T/C” value ([5]; Exp. 8305, 1 mg/kg/dose) was 175%. For the same compound, the Av. wgt. change ([5]; Exp. 8305, 1 mg/kg/dose) was -0.3 g, the Med. surv. time ([5]; Exp. 8305, 1 mg/kg/dose) was 17.5 and the “No. of mice alive on d 5” value ([5]; Exp. 8305, 1 mg/kg/dose) was 6/6. For the same compound, the “% T/C” value ([5]; Exp. 8305, 2 mg/kg/dose) was 105%, the Av. wgt. change ([5]; Exp. 8305, 2 mg/kg/dose) was -2.2 g and the Med. surv. time ([5]; Exp. 8305, 2 mg/kg/dose) was 10.5. For the same compound, the “No. of mice alive on d 5” value ([5]; Exp. 8305, 2 mg/kg/dose) was 6/6, the “% T/C” value ([5]; Exp. 8305, 4 mg/kg/dose) was 90% and the Av. wgt. change ([5]; Exp. 8305, 4 mg/kg/dose) was -3.6 g. For the same compound, the Med. surv. time ([5]; Exp. 8305, 4 mg/kg/dose) was 9.0, the “No. of mice alive on d 5” value ([5]; Exp. 8305, 4 mg/kg/dose) was 6/6 and the optimal dose ([5]; Exp. 8305, ip one day after tumor implant) was 1 mg/kg/inj. The “% T/C” value ([5]; Exp. 8328, 0.25 mg/kg/dose) was 185%, the Av. wgt. change ([5]; Exp. 8328, 0.25 mg/kg/dose) was -0.4 g and the Med. surv. time ([5]; Exp. 8328, 0.25 mg/kg/dose) was 18.5. The “No. of mice alive on d 5” value ([5]; Exp. 8328, 0.25 mg/kg/dose) was 6/6, the “% T/C” value ([5]; Exp. 8328, 0.5 mg/kg/dose) was 130% and the Av. wgt. change ([5]; Exp. 8328, 0.5 mg/kg/dose) was -1.1 g. For the same compound, the Med. surv. time ([5]; Exp. 8328, 0.5 mg/kg/dose) was 13.0, the “No. of mice alive on d 5” value ([5]; Exp. 8328, 0.5 mg/kg/dose) was 6/6 and the “% T/C” value ([5]; Exp. 8328, 1.0 mg/kg/dose) was 90%. For the same compound, the Av. wgt. change ([5]; Exp. 8328, 1.0 mg/kg/dose) was -2.3 g, the Med. surv. time ([5]; Exp. 8328, 1.0 mg/kg/dose) was 9.0 and the “No. of mice alive on d 5” value ([5]; Exp. 8328, 1.0 mg/kg/dose) was 6/6. The “% T/C” value ([5]; Exp. 8328, 2.0 mg/kg/dose) was “TOX”, the Av. wgt. change ([5]; Exp. 8328, 2.0 mg/kg/dose) was -1.9 g and the Med. surv. time ([5]; Exp. 8328, 2.0 mg/kg/dose) was “TOX”. The “No. of mice alive on d 5” value ([5]; Exp. 8328, 2.0 mg/kg/dose) was 2/6, the optimal dose ([5]; Exp. 8328, ip, Q1DX1;1) was 0.25 mg/kg/inj and the “activity by the lifespan criterion” value ([6]; Exp. 796) was “active by the lifespan criterion”. For the same compound, the “activity by the tumor growth delay criterion” value ([6]; Exp. 796) was “Neither kedarcidin chromophore or kedarcidin were active”, the optimum dose ([6]; Exp. 796, iv one day after tumor implant) was 0.062 mg/kg/inj and the “% T/C” value ([6]; Exp. 796, 0.062 mg/kg/dose) was 164%. The Av. wgt. change ([6]; Exp. 796, 0.062 mg/kg/dose) was 1.1 g, the Med. surv. time ([6]; Exp. 796, 0.062 mg/kg/dose) was 41.0 and the “No. of mice alive on d 5” value ([6]; Exp. 796, 0.062 mg/kg/dose) was 8/8. The “% T/C” value ([6]; Exp. 796, 0.125 mg/kg/dose) was 126%, the Av. wgt. change ([6]; Exp. 796, 0.125 mg/kg/dose) was 1.1 g and the Med. surv. time ([6]; Exp. 796, 0.125 mg/kg/dose) was 31.5. The “No. of mice alive on d 5” value ([6]; Exp. 796, 0.125 mg/kg/dose) was 8/8, the “% T/C” value ([6]; Exp. 796, 0.25 mg/kg/dose) was “TOX” and the Av. wgt. change ([6]; Exp. 796, 0.25 mg/kg/dose) was -1.0 g. The Med. surv. time ([6]; Exp. 796, 0.25 mg/kg/dose) was “TOX”, the “No. of mice alive on d 5” value ([6]; Exp. 796, 0.25 mg/kg/dose) was 2/8 and the “% T/C” value ([6]; Exp. 796, 0.5 mg/kg/dose) was “TOX”. The Med. surv. time ([6]; Exp. 796, 0.5 mg/kg/dose) was “TOX”, the “No. of mice alive on d 5” value ([6]; Exp. 796, 0.5 mg/kg/dose) was 0/8 and the “activity and potency compared to kedarcidin” value ([6]; conclusion, compared directly) was “as active as, and slightly more potent than, kedarcidin”. For the same compound, the “antitumor activity by lifespan criterion” value ([6]; sc implanted B16, conclusion) was “significant antitumor activity; also recorded: in vivo antitumor activity”, the “efficacy and potency compared to kedarcidin” value (P388 murine leukemia; P388 model) was “as efficacious as, and slightly more potent than, kedarcidin; also recorded: as active as, and slightly more potent than, kedarcidin” and the “antitumor activity in P388 models” value (P388 murine leukemia; ip, ip or iv, iv model) was “both potent and efficacious; also recorded: significant antitumor activity; also recorded: in vivo antitumor activity”. The Stability (Stability in solution) was “Very unstable” and the Decomposition in solution (Stability in solution; in solution with benzene, methanol, chloroform and DMSO) was “Decomposes within hours”.
